Assay results taken from US6667278B2, “Non-steroidal mimetics of brassinolide” (University Technologies International Inc., priority 2000, dated 2003).
One block for each compound: values may come before it.

Legend:
[1] = system: dwarf rice Oryza satina var. Tan-ginbozu; test: rice leaf lamina inclination bioassay; type: in vivo
Experimental: Mimetics 3-12, along with brassinolide for comparison, were subjected to the rice leaf lamina inclination bioassay^30. This technique is a rapid, highly sensitive and convenient means for detecting and measuring brassinosteroid bioactivity. Strongly active brassinosteroids such as brassinolide can be readily detected at doses as low as 1 ng/plant. The assay is based on the downward movement response of the second leaf lamina angle of rice seedlings to the application of active brassinosteroids. Thus, a decrease in the leaf angle occurs from about 160 degrees (i.e. nearly upright) in control plants to angles of less than 90 degrees when a strong response is measured. A plot of leaf lamina angle vs. the logarithm of the dose in ng provides a convenient indication of bioactivity.
Brassinosteroids show synergy with auxins such as indole-3-acetic acid (IAA) in this bioassay^7,30,31. Thus, co-application of a given dose of the brassinosteroid with IAA generally elicits a similar decrease in the leaf lamina angle as would be observed with a dose one or two orders of magnitude higher of the brassinosteroid alone. […] The bioassays of mimetics 3-12 were therefore run both in the presence and absence of 1000 ng of added IAA and mimetic 11 was also bioassayed in the presence of 5000 ng of IAA.
Mimetics 3-12, along with brassinolide as a standard, were tested for biological activity by means of the rice leaf lamina assay, using a dwarf rice Oryza satina var. Tan-ginbozu, as described^30. The compounds were dissolved in 95% ethanol, except for mimetic 11 where DMSO was used due to poor solubility in ethanol. To a solution of mimetic 11 in 50 microliters of DMSO was added 550 microliters of a 2.5% aqueous solution of Atlas®, an ICI formulating material, to improve uptake. The test solutions were then applied as 0.5 μl microdrops to the rice plants 48 h after planting the germinated seeds on 0.8% water agar. At high doses, several rounds of application of the 0.5 μl microdrops were required to attain the desired dose per plant. Where IAA was a co-treatment, 1,000 or 5,000 ng of IAA was similarly applied per plant ca. 2 h prior to the application of brassinolide and mimetics 3-12. The resultant leaf lamina angle was measured 60-65 h later. For an individual bioassay, each data point is the mean of the leaf angles from ca. 36 plants for doses up to 100 ng and from ca. 24 plants for the 1000 and 10,000 ng doses. Parallel control applications of solvent and IAA (1000 ng) were also carried out. […] Similarly, the results for brassinolide plus IAA, which were reported earlier,^14,16,17a are not shown here for purposes of clarity.

solubility in ethanol = type: physicochemical
[2] = system: dwarf rice Oryza satina var. Tan-ginbozu; conditions: in vivo; cited from earlier work
rice, beans and others = conditions: applied exogenously; cited from earlier work
[3] = all dosage levels, with or without IAA application
[4] = applied together with IAA in 95% ethanol

- solubility in ethanol (solubility in ethanol): poor
Structure (SMILES): O=C1CC=C(C=CC2=CCC(=O)C3CC(O)C(O)CC23)C2CC(O)C(O)CC12 (mixture of isomers) [Mimetic 11, (E)-1,2-Bis[trans-(4aα,8aβ)-4-oxo-6α,7α-dihydroxy-4a,5,6,7,8,8a-hexahydro-(3H)-naphthyl]ethene and its Meso Isomer]
- bioactivity in the rice leaf lamina inclination assay ([1]; IAA increased to 5000 ng, DMSO diluted with 2.5% aqueous Atlas, compared with 1000 ng IAA): even further enhanced
- bioactivity in the rice leaf lamina inclination assay ([1]; applied together with 1000 ng of IAA, DMSO diluted with 2.5% aqueous Atlas): active across a wide range of doses
- dose at which significant activity is displayed ([1]; with 5000 ng of IAA, DMSO/Atlas): 0.01 ng

Structure (SMILES): OC1Cc2ccc(C#Cc3ccc4c(c3)CC(O)C(O)C4)cc2CC1O (single isomer, unassigned) [Mimetic 5, (±)-1,2-Bis[6α,7α-dihydroxy-5,6,7,8-tetrahydronaphthyl]ethyne and its Meso Isomer]
- bioactivity in the rice leaf lamina inclination assay [1, 3]: completely inactive

Structure (SMILES): O=C1CC=C(C#CC2=CCC(=O)C3CC(O)C(O)CC23)C2CC(O)C(O)CC12 (mixture of isomers) [Mimetic 10, (±)-1,2-Bis[trans-(4aα,8aβ)-4-oxo-6α,7α-dihydroxy-4a,5,6,7,8,8a-hexahydro-(3H)-naphthyl]ethyne and its Meso Isomer]
- bioactivity in the rice leaf lamina inclination assay [1, 3]: devoid of activity

Structure (SMILES): O=C(O)Cc1c[nH]c2ccccc12 [IAA, indole-3-acetic acid, reference compound]
- effect in the bioassay ([1]; applied on its own): without significant effect

Structure (SMILES): Oc1ccc(C=Cc2ccc(O)c3c2CC(O)C(O)C3)c2c1CC(O)C(O)C2 (mixture of isomers) [Mimetic 6, (E)-(±)-1,2-Bis[4,6α,7α-trihydroxy-5,6,7,8-tetrahydronaphthyl]ethene and its Meso Isomer]
- bioactivity in the rice leaf lamina inclination assay [1, 4]: significant bioactivity
- dose that produced a significant bioassay response [1, 4]: 10000 ng

Structure (SMILES): Oc1ccc(C#Cc2ccc(O)c3c2CC(O)C(O)C3)c2c1CC(O)C(O)C2 (single isomer, unassigned) [Mimetic 3, (±)-1,2-Bis[4,6α,7α-trihydroxy-5,6,7,8-tetrahydronaphthyl]ethyne and its Meso Isomer]
- bioactivity in the rice leaf lamina inclination assay [1, 4]: modest, but statistically significant activity
- dose that produced a significant bioassay response [1, 4]: 10,000 ng

Structure (SMILES): CC(C)[C@H](C)[C@@H](O)[C@H](O)[C@@H](C)[C@H]1CC[C@H]2[C@@H]3COC(=O)[C@H]4C[C@H](O)[C@H](O)C[C@]4(C)[C@H]3CC[C@]12C [brassinolide, (22R, 23R, 24S)-2α,3α,22,23-tetrahydroxy-24-methyl-B-homo-7-oxa-5α-cholestan-6-one]
- dose as low as which readily detected [2]: 1 ng/plant
- dose as low as which biological activity is manifested (rice, beans and others): one

Structure (SMILES): Oc1cc2c(O)ccc(CCc3ccc(O)c4cc(O)c(O)cc34)c2cc1O [Mimetic 9, 1,2-Bis(4,6,7-trihydroxynaphthyl)ethane]
- bioactivity in the rice leaf lamina inclination assay [1, 3]: no bioactivity

Structure (SMILES): Oc1cc(C#Cc2ccc3c(c2)CC(O)C(O)C3)cc2c1CC(O)C(O)C2 (racemic) [Mimetic 4, (±)-1-[4,6α,7α-Trihydroxy-5,6,7,8-tetrahydronaphthyl]-2-[6α′,7α∝-dihydroxy-5′,6′,7′,8′-tetrahydronaphthyl]ethyne as Two (±) Pairs]
- bioactivity in the rice leaf lamina inclination assay [1, 4]: modest, but statistically significant activity

Structure (SMILES): OC1Cc2ccc(/C=C/c3ccc4c(c3)CC(O)C(O)C4)cc2CC1O (single isomer, unassigned) [Mimetic 7, (E)-(±)-1,2-Bis[6α,7α-dihydroxy-5,6,7,8-tetrahydronaphthyl]ethene and its Meso Isomer]
- bioactivity in the rice leaf lamina inclination assay [1, 3]: completely inactive

Structure (SMILES): O=C1CCC(=NN=C2CCC(=O)C3CC(O)C(O)CC23)C2CC(O)C(O)CC12 (single isomer, unassigned) [Mimetic 12, 6,7-Dihydroxy-2,3,4a,5,6,7,8,8a-octahydro-4-oxo-naphthalenone Azine (Mixture of Isomers)]
- bioactivity in the rice leaf lamina inclination assay [1, 3]: devoid of activity

Structure (SMILES): Oc1ccc(CCc2ccc(O)c3c2CC(O)C(O)C3)c2c1CC(O)C(O)C2 (single isomer, unassigned) [Mimetic 8, (±)-1,2-Bis[4,6α,7α-trihydroxy-5,6,7,8-tetrahydronaphthyl]ethane and its Meso Isomer]
- bioactivity in the rice leaf lamina inclination assay [1, 3]: no bioactivity
